Where two headings read alike, the source gives them in different places.
Experiments:
[1] = cited from earlier work
[2] = system: subjects with iron deficiency anemia (IDA); assay: Randomized trial of ferric carboxymaltose vs. oral iron in non-responders to the oral iron run-in: hemoglobin levels; type: in vivo, human; conditions: for Hemoglobin at baseline (Day 1), mean (SD): before randomized treatment, non-responders to oral iron run-in; for Hemoglobin change to Day 35, mean (SD) / Hemoglobin change to Day 35, median: change from baseline (Day 1) to Day 35; for percentage of subjects with a hemoglobin increase of ≧1 g/dL: non-responders to the oral iron run-in in whom hepcidin values were measured; for percentage of subjects with a hemoglobin increase of ≧1 g/dL / mean Hemoglobin increases / percentage of subjects with hemoglobin change ≧2 g/dL: after randomization; for mean Hemoglobin increases / percentage of subjects with hemoglobin change ≧2 g/dL: non-responders to the oral iron run-in
Protocol: The following example describes hepcidin measurements obtained during a randomized, multi-center, controlled trial comparing the efficacy and safety of ferric carboxymaltose in subjects with iron deficiency anemia (IDA) (see generally, Szczech 2011).
(§1) Ferric carboxymaltose (Group A) was administered at a dose of 15 mg/kg to a maximum 750 mg per dose administered intravenously on Day 0 and Day 7. Oral iron was given as ferrous sulfate 325 mg three times a day for an additional 14 days starting on Day 0.
Hemoglobin levels and markers of iron status were assessed up to 35 days and measures of safety and tolerability were assessed up to 120 days. Hemoglobin levels and markers of iron status were assessed at screening (Day […]), Day 1, and Day 35.
(§2) The following example describes the randomized study of ferric carboxymaltose (FCM) vs. oral iron therapy on non-responders. Baseline (Day 1) and post-treatment (Day 35) levels of hepcidin and hemoglobin were compared.

hepcidin = assay: Randomized trial of ferric carboxymaltose vs. oral iron in non-responders: serum hepcidin levels by C-ELISA; type: in vivo, human; conditions: for Hepcidin on Day 35, mean (SD) / Hepcidin on Day 35, median / Hepcidin at baseline (Day 1), mean (SD) / Hepcidin at baseline (Day 1), median: non-responders to oral iron run-in; for Hepcidin at baseline (Day 1), mean (SD): before randomized treatment; for Hepcidin change to Day 35, mean (SD) / Hepcidin change to Day 35, median: change from baseline (Day 1) to Day 35; for change in hepcidin from baseline (Day 1) to Day 35, in words: non-responders to the oral iron run-in
Protocol: as §1
Hepcidin levels were analyzed from serum samples obtained at screening (Day […]) in an initial Analysis Group (I) of 44 subjects, 22 responders, and 22 non-responders. A hepcidin value of ≧20 ng/mL was identified as a cutoff for further study in the determination of predictive values for non-responsiveness to 14 day oral iron run-in in 240 subjects (Analysis Group II).
Hepcidin levels were also assessed after the oral iron run-in (Day 1) and after treatment with intravenous (IV) iron or oral iron post-randomization (Day 35). Hepcidin levels were measured using a commercially available competitive enzyme-linked immunosorbent assay (C-ELISA). Samples were collected by the investigator at the site, stored by a contract research organization (Covance, Indianapolis, Ind.) and sent to a commercial laboratory (Intrinsic LifeSciences, La Jolla, Calif.) for analysis.
as §2

[3] = system: subjects with iron deficiency anemia (IDA); conditions: Analysis Group II, ferrous sulfate 325 mg three times daily for 14 days
Protocol: Eligibility for this trial included subjects≧18 years of age with hemoglobin≦11 g/dL and IDA of any etiology with ferritin≦100 ng/mL, or ≦300 ng/mL when transferrin saturation (TSAT) was ≦30%.
The following example describes the determination and comparison of hepcidin levels in 240 subjects with response to oral iron. Hepcidin and other iron indices were measured and compared. The objective of the study was to determine the baseline characteristics of the subject population and to compare levels of hepcidin, hemoglobin, and iron indices in responders and non-responders after a 14 day treatment of oral iron.

[4] = in vivo; cited from earlier work
rodents and dogs = conditions: single dose; cited from earlier work
dogs and rats = conditions: cumulative doses over 13 weeks, dose-related clinical signs of iron accumulation in liver, spleen, kidneys; cited from earlier work
rabbit = conditions: intra-arterial, perivenous or intravenous; cited from earlier work
[5] = in vitro and in vivo; cited from earlier work
dextran antibodies = conditions: cited from earlier work
[6] = listed as ferric carboxymaltose

Substance | Hemoglobin on Day 35, mean (SD) [2] | Hemoglobin on Day 35, median [2] [g/dL] | Hemoglobin at baseline (Day 1), median [2] [g/dL] | Hemoglobin at baseline (Day 1), mean (SD) [2] | Hemoglobin change to Day 35, mean (SD) [2] | Hemoglobin change to Day 35, median [2] [g/dL] | percentage of subjects with a hemoglobin increase of ≧1 g/dL [2] [%] | mean Hemoglobin increases [2] [gm/dL] | percentage of subjects with hemoglobin change ≧2 g/dL [2] [%] | Hepcidin on Day 35, mean (SD) (hepcidin) | Hepcidin on Day 35, median (hepcidin) [ng/mL] | Hepcidin at baseline (Day 1), mean (SD) (hepcidin) | Hepcidin at baseline (Day 1), median (hepcidin) [ng/mL] | Hepcidin change to Day 35, mean (SD) (hepcidin) | Hepcidin change to Day 35, median (hepcidin) [ng/mL] | change in hepcidin from baseline (Day 1) to Day 35, in words (hepcidin) | also measured
iron sucrose |  |  |  |  |  |  |  |  |  |  |  |  |  |  |  |  | injected amount still in the blood ([1]; in vivo, iv): 2 to 13%; projected calculated terminal half-life (t½) ([1]; in vivo, iv): 6 h
ferrous sulfate [Oral iron] | 11.0 (1.3) g/dL | 10.9 | 10.7 | 10.4 (1.2) g/dL | 0.6 (0.9) g/dL | 0.5 | 20.8 | 0.6±0.9 | 5.2 | 29.0 (53.894) ng/mL | 10.5 | 32.0 (44.314) ng/mL | 19.6 | −3.02 (41.793) ng/mL | -6.0 | no significant change | Hemoglobin change to Day 35, mean (SD) ([2]; listed as oral iron): 0.6 g/dL; Hepcidin at baseline (Day 1), mean (SD) (hepcidin; listed as oral iron): 32.03 ng/mL; hemoglobin change after the 14 day oral iron run-in, non-responders ([3]; non-responders (Hb Δ <1 g/dL)): 0.2 ± 0.4 g/dL; hemoglobin change after the 14 day oral iron run-in, responders ([3]; responders (Hb Δ ≧1 g/dL)): 1.8 ± 0.6 g/dL
polynuclear iron (III)-hydroxide 4(R)-(poly-(1→4)-O-α-glucopyranosyl)-oxy-2(R),3(S),5(R),6-tetrahydroxy-hexanoate [FCM] | 12.0 (1.4) g/dL | 12.2 | 10.4 | 10.3 (1.1) g/dL | 1.7 (1.3) g/dL | 1.7 | 65.3 | 1.7±1.3 | 37.5 | 160.5 (181.543) ng/mL | 112.6 | 39.2 (92.236) ng/mL | 2.5 | 121.35 (115.977) ng/mL | 91.9 | significant increase | Hemoglobin change to Day 35, mean (SD) [2, 6]: 1.7 g/dL; Hepcidin on Day 35, mean (SD) (hepcidin; [6]): 160.51 ng/mL; Hepcidin at baseline (Day 1), mean (SD) (hepcidin; [6]): 39.15 ng/mL; Hepcidin change to Day 35, mean (SD) (hepcidin; [6]): 121.35 ng/mL; acute toxicity relative to iron sucrose [4]: one-fifth that of iron sucrose; safe and tolerated intravenous dose as multiple of the equivalent of an intravenous infusion of 1,000 mg iron once weekly in humans (rodents and dogs): up to 60 times; no observed adverse effect level, cumulative dose (dogs and rats): up to 117 mg iron/kg body weight; treatment-related local tissue irritation (rabbit): No treatment-related local tissue irritation was observed; mutagenicity [5]: no evidence that FCM is clastogenic, mutagenic, or causes chromosomal damage or bone marrow cell toxicity; reaction with dextran antibodies (dextran antibodies): does not react with dextran antibodies; specific responses in a dextran antigenicity test (dextran antibodies): no specific responses; injected amount still in the blood ([1]; eight hours after intravenous administration): 5 to 20%; projected calculated terminal half-life (t½) ([1]; intravenous): approximately 16 hours

— US20150202224A1, “METHOD OF TREATING IRON DEFICIENCY ANEMIA” (Luitpold Pharmaceuticals, Inc., priority 2012, published 2015)
